Reference: patent US20120070411A1, “SUBSTITUTED NUCLEOTIDE ANALOGS” (Alios BioPharma, Inc., priority 2010, published 2012)
Read-outs that look alike come from different tables or passages of the source.

How the values were obtained:
[1] = system: Huh-7 cells containing the self-replicating, subgenomic HCV replicon; test: HCV replicon assay (luciferase reporter, 72 h); type: cell-based; details: read-out: HCV Replicon Activity (EC50)
Protocol: Huh-7 cells containing the self-replicating, subgenomic HCV replicon with a stable luciferase (LUC) reporter were cultured in Dulbecco's modified Eagle's medium (DMEM) containing 2 mM L-glutamine and supplemented with 10% heat-inactivated fetal bovine serum (FBS), 1% penicillin-streptomyocin, 1% nonessential amino acids, and 0.5 mg/ml G418.
On the first day, 5,000 HCV replicon cells were plated per well in a 96-well plate. On the following day, test compounds were solubilized in 100% DMSO to 100× the desired final testing concentration. Each compound was then serially diluted (1:3) up to 9 different concentrations. Compounds in 100% DMSO are reduced to 10% DMSO by diluting 1:10 in cell culture media. The compounds were diluted to 10% DMSO with cell culture media, which were used to dose the HCV replicon cells in 96-well format. The final DMSO concentration was 1%. The HCV replicon cells were incubated at 37° C. for 72 hours. At 72 hours, cells were processed when the cells are still subconfluent. Compounds that reduce the LUC signal are determined by Bright-Glo Luciferase Assay (Promega, Madison, Wis.). % Inhibition was determined for each compound concentration in relation to the control cells (untreated HCV replicon) to calculate the EC50.

[2] = system: HCV genotype 1b HCV replicon harbored in Huh7 cells; test: Combination testing with compound A10 in HCV replicon (CalcuSyn CI and MacSynergy II synergy volume); type: cell-based; details: combination of compound A10 with the listed compound; MacSynergy II, Bliss independence; 25-100 synergistic, >100 strongly synergistic
Protocol: Two or more test compounds were tested in combination with each other using an HCV genotype 1b HCV replicon harbored in Huh7 cells with a stable luciferase (LUC) reporter. Cells were cultured under standard conditions in Dulbecco's modified Eagle's medium (DMEM; Mediatech Inc, Herndon, Va.) containing 10% heat-inactivated fetal bovine serum (FBS; Mediatech Inc, Herndon, Va.) 2 mM L-glutamine, and nonessential amino acids (JRH Biosciences). HCV replicon cells were plated in a 96-well plate at a density of 10^4 cells per well in DMEM with 10% FBS. […] The cells were incubated with no compound as a control, with the test compounds, or the combination of compounds for 72 h. The direct effects of the combination of the test compounds were examined using a luciferase (LUC) based reporter as determined by the Bright-Glo Luciferase Assay (Promega, Madison, Wis.). Dose-response curves were determined for individual compounds and fixed ratio combinations of two or more test compounds.
The effects of test compound combinations were evaluated by two separate methods. In the Loewe additivity model, the experimental replicon data was analyzed by using CalcuSyn (Biosoft, Ferguson, Mo.), a computer program based on the method of Chou and Talalay. The program uses the experimental data to calculate a combination index (CI) value for each experimental combination tested. A CI value of <1 indicates a synergistic effect, a CI value of 1 indicates an additive effect, and a CI value of >1 indicates an antagonistic effect.
The second method utilized for evaluating combination effects used a program called MacSynergy II. MacSynergy II software was kindly provided by Dr. M. Prichard (University of Michigan). The Prichard Model allows for a three-dimensional examination of drug interactions and a calculation of the synergy volume (units: μM^2%) generated from running the replicon assay using a checkerboard combination of two or more inhibitors. The volumes of synergy (positive volumes) or antagonism (negative volumes) represent the relative quantity of synergism or antagonism per change in the concentrations of the two drugs. Synergy and antagonism volumes are defined based on the Bliss independence model. In this model, synergy volumes of less than −25 indicate antagonistic interactions, volumes in the −25-25 range indicate additive behavior, volumes in the 25-100 range indicate synergistic behavior and volumes>100 indicate strong synergistic behavior.

| Compound | EC50 ([1]; Hepatitis C virus, Huh-7, 72 h) | further results |
| --- | --- | --- |
| CC[C@@H](OP(=O)(N[C@@H](C)C(=O)OC(C)C)Oc1ccccc1)[C@H]1O[C@@H](n2cnc3c(N)ncnc32)[C@H](O)[C@@H]1O (stereo partly drawn) [A25, 5′(R)—C-ethyladenosine 5′-[phenyl(isopropoxy-L-alaninyl)]phosphate] | < 1000 µM |  |
| CC(C)OC(=O)[C@H](C)NP(=O)(Oc1ccccc1)O[C@H]([C@H]1O[C@@H](n2cnc3c(N)ncnc32)[C@H](O)[C@@H]1O)C(F)(F)F (stereo partly drawn) [A26, 5′(S)—C-trifluoromethyladenosine 5′-[phenyl(isopropoxy-L-alaninyl)]phosphate] | < 100 µM |  |
| CC(C)OC(=O)[C@H](C)NP(=O)(Oc1ccccc1)O[C@@H]([C@H]1O[C@@H](n2cnc3c(N)ncnc32)[C@H](O)[C@@H]1O)C(F)(F)F (stereo partly drawn) [A27, 5′(R)—C-trifluoromethyladenosine 5′-[phenyl(isopropoxy-L-alaninyl)]phosphate] | < 30 µM |  |
| CC(NP(=O)(Oc1ccccc1Cl)OC(C)C1OC(n2cnc3c(N)ncnc32)[C@H](O)[C@@H]1O)C(=O)OC1CCCCC1 (stereo partly drawn) [A28, 5′(S)—C-methyladenosine 5′-[2-chlorophenyl(cyclohexoxy-L-alaninyl)]phosphate] | < 1 µM |  |
| C[C@H](NP(=O)(Oc1ccc(F)c(Cl)c1)O[C@@H](C)[C@H]1O[C@@H](n2cnc3c(N)ncnc32)[C@H](O)[C@@H]1O)C(=O)OC1CCCCC1 (stereo partly shown) [A29] | < 1 µM |  |
| Cc1ccc(OP(=O)(N[C@@H](C)C(=O)OC2CCCCC2)O[C@@H](C)[C@H]2O[C@@H](n3cnc4c(N)ncnc43)[C@H](O)[C@@H]2O)cc1 (stereo partly shown) [A30] | < 1 µM |  |
| C[C@H](NP(=O)(Oc1ccc(Cl)cc1)O[C@@H](C)[C@H]1O[C@@H](n2cnc3c(N)ncnc32)[C@H](O)[C@@H]1O)C(=O)OC1CCCCC1 (stereo partly shown) [A32] | < 1 µM |  |
| COc1ccc(OP(=O)(N[C@@H](C)C(=O)OC2CCCCC2)O[C@@H](C)[C@H]2O[C@@H](n3cnc4c(N)ncnc43)[C@H](O)[C@@H]2O)cc1 (stereo partly shown) [A33] | < 1 µM |  |
| CC[C@H](NP(=O)(Oc1ccccc1)O[C@@H](C)[C@H]1O[C@@H](n2cnc3c(N)ncnc32)[C@H](O)[C@@H]1O)C(=O)OC1CCCCC1 (stereo partly shown) [A34] | < 1 µM |  |
| C[C@H](NP(=O)(Oc1cccnc1)O[C@@H](C)[C@H]1O[C@@H](n2cnc3c(N)ncnc32)[C@H](O)[C@@H]1O)C(=O)OC1CCCCC1 (stereo partly shown) [A36] | < 30 µM |  |
| Cc1ccccc1OP(=O)(N[C@@H](C)C(=O)OC1CCCCC1)O[C@@H](C)[C@H]1O[C@@H](n2cnc3c(N)ncnc32)[C@H](O)[C@@H]1O (stereo partly shown) [A37] | < 1 µM |  |
| CCC[C@H](NP(=O)(Oc1ccccc1)O[C@@H](C)[C@H]1O[C@@H](n2cnc3c(N)ncnc32)[C@H](O)[C@@H]1O)C(=O)OC1CCCCC1 (stereo partly shown) [A38] | < 1 µM |  |
| CC(C)[C@H](NP(=O)(Oc1ccccc1)O[C@@H](C)[C@H]1O[C@@H](n2cnc3c(N)ncnc32)[C@H](O)[C@@H]1O)C(=O)OC1CCCCC1 (stereo partly shown) [A39] | < 1 µM |  |
| CC(C)C[C@H](NP(=O)(Oc1ccccc1)O[C@@H](C)[C@H]1O[C@@H](n2cnc3c(N)ncnc32)[C@H](O)[C@@H]1O)C(=O)OC1CCCCC1 (stereo partly shown) [A40] | < 1 µM |  |
| CSCC[C@H](NP(=O)(Oc1ccccc1)O[C@@H](C)[C@H]1O[C@@H](n2cnc3c(N)ncnc32)[C@H](O)[C@@H]1O)C(=O)OC1CCCCC1 (stereo partly shown) [A41] | < 1 µM |  |
| C[C@H](OP(=O)(N[C@@H](Cc1ccccc1)C(=O)OC1CCCCC1)Oc1ccccc1)[C@H]1O[C@@H](n2cnc3c(N)ncnc32)[C@H](O)[C@@H]1O (stereo partly shown) [A42] | < 30 µM |  |
| C[C@H](OP(=O)(NCC(=O)OC1CCCCC1)Oc1ccccc1)[C@H]1O[C@@H](n2cnc3c(N)ncnc32)[C@H](O)[C@@H]1O (stereo partly shown) [A43] | < 1 µM |  |

| Compound | EC50 ([1]; Hepatitis C virus, Huh-7, 72 h) | further results |
| --- | --- | --- |
| COc1ccc2c(O[C@@H]3C[C@H]4C(=O)N[C@]5(C(=O)O)C[C@H]5/C=C\CCCCC[C@H](NC(=O)OC5CCCC5)C(=O)N4C3)cc(-c3csc(NC(C)C)n3)nc2c1 [BILN-2061] |  | Synergy Volume [2]: 12 μM^2% |
| COC(=O)N[C@H](C(=O)N1CCC[C@H]1c1nc(-c2ccc(-c3ccc(-c4c[nH]c([C@@H]5CCCN5C(=O)[C@@H](NC(=O)OC)C(C)C)n4)cc3)cc2)c[nH]1)C(C)C [BMS-790052] |  | Synergy Volume [2]: 25 μM^2% |
| CC(C)OC(=O)[C@H](C)NP(=O)(Oc1cccc2ccccc12)O[C@@H](C)[C@H]1O[C@@H](n2ccc(N)nc2=O)[C@H](O)[C@@H]1O (stereo partly drawn) [C2, 5′(S)—C-methylcytidine-[naphthyl(isopropoxy-L-alaninyl)]phosphate] | < 100 µM |  |
| COC(=O)[C@H](C)NP(=O)(Oc1ccccc1)O[C@@H](C)[C@H]1O[C@@H](n2ccc(N)nc2=O)[C@H](O)[C@@H]1O (stereo partly drawn) [C6, 5′(S)—C-Methylcytidine 5′-[phenyl(methoxy-L-alaninyl)]phosphate] | < 100 µM |  |
| CC(C)OC(=O)[C@H](C)NP(=O)(Oc1ccccc1)O[C@@H](C)[C@H]1O[C@@H](n2ccc(N)nc2=O)[C@H](O)[C@@H]1O (stereo partly drawn) [C8, 5′(S)—C-methylcytidine 5′-[phenyl(isopropoxy-L-alaninyl)]phosphate] | < 100 µM |  |
| COC(=O)[C@H](C)NP(=O)(Oc1ccccc1)O[C@H](C)[C@H]1O[C@@H](n2ccc(=O)[nH]c2=O)[C@@H](O)[C@@H]1O (stereo partly drawn) [D1, 5′(R)—C-methylarabinouridine 5′-[phenyl(methoxy-L-alaninyl)]phosphate] | < 1000 µM |  |
| COC(=O)[C@H](C)NP(=O)(Oc1ccccc1)O[C@@H](C)[C@H]1O[C@@H](n2ccc(=O)[nH]c2=O)[C@@H](O)[C@@H]1O (stereo partly drawn) [D2, 5′ (S)—C-methylarabinouridine 5′-[phenyl(methoxy-L-alaninyl)]phosphate] | < 1000 µM |  |
| CC(C)OC(=O)[C@H](C)NP(=O)(Oc1ccccc1)O[C@@H](C)[C@H]1O[C@@H](n2cnc3c(N)nc(N)nc32)[C@H](O)[C@@H]1O (stereo partly drawn) [E1, 1-(2,6-diaminopurin-9-yl)-5(S)—C-methyl-β-D-ribofuranose 5-[phenyl(isopropoxy-L-alaninyl)]phosphate] | < 30 µM |  |
| CCc1cc(CC[C@]2(C3CCCC3)CC(O)=C(Cc3nc4nc(C)cc(C)n4n3)C(=O)O2)cc(CC)n1 [Filibuvir, FILIBUVIR] |  | Synergy Volume [2]: 38 μM^2% |
| Fc1ccccc1-c1nc2ccn(Cc3ccc(-c4ccc(C(F)(F)F)cc4C(F)(F)F)nn3)cc-2n1 [GS-9190] |  | Synergy Volume [2]: 112 μM^2% |
| CNC(=O)c1c(-c2ccc(F)cc2)oc2cc(N(CCO)S(C)(=O)=O)c(C3CC3)cc12 [HCV-796] |  | Synergy Volume [2]: 35 μM^2% |
| COc1nc(N)nc2c1ncn2[C@@H]1O[C@H](COP(=O)(N[C@@H](C)C(=O)OCC(C)(C)C)Oc2cccc3ccccc23)[C@@H](O)[C@@]1(C)O (stereo partly shown) [INX-189] |  | Synergy Volume [2]: 31 μM^2% |
| CC(C)(C)OC(=O)N[C@H]1CCCCC/C=C\[C@@H]2C[C@@]2(C(=O)NS(=O)(=O)C2CC2)NC(=O)[C@@H]2C[C@@H](OC(=O)N3Cc4cccc(F)c4C3)CN2C1=O [ITMN-191, DANOPREVIR] |  | Synergy Volume [2]: 39 μM^2% |
| CCOc1nc(N)nc2c1ncn2[C@@H]1O[C@@H]2COP(=O)(OC(C)C)O[C@H]2[C@@]1(C)F (stereo partly shown) [PSI-938] |  | Synergy Volume [2]: 36 μM^2% |
| C[C@@]1(F)[C@H](O)[C@@H](CO)O[C@H]1n1ccc(N)nc1=O [PSI-6130] |  | Synergy Volume [2]: 21 μM^2% |
| COC(=O)[C@@H](C)NP(=O)(Oc1ccccc1)O[C@@H](C)[C@H]1O[C@@H](n2cnc3c(N)ncnc32)[C@](C)(O)[C@@H]1O (stereo partly shown) [drawing 355] | 30 to 200 µM |  |
| COC(=O)[C@@H](C)NP(=O)(Oc1ccccc1)O[C@@H](C)[C@H]1O[C@@H](n2cnc3c(N)ncnc32)[C@](C)(O)[C@@H]1O (stereo partly shown) [drawing 364] |  | EC50 ([1]; Table 9, Huh-7 HCV replicon cells, luciferase, 72 hours): 30 to 200 µM |
